Source: ChEMBL document CHEMBL4476874, “Compounds for the modulation of myc activity” (2018)

Assays:
[1] = biological target: Myc proto-oncogene protein (Homo sapiens, UniProt P01106); experiment: Inhibition of human c-Myc assessed as reduction in c-Myc/Max/Ebox DNA complex formation using pre-formed complex of c-Myc and biotinylated DNA containing single Ebox-sequence followed by compound addition and further addition of his6-tagged c-Max and incubated for 2 hrs by AlphaScreen assay
NCI-H2171 = experiment: Antiproliferative activity against human NCI-H2171 cells after 72 hrs by ATPlite assay; assay type: functional, cell-based; conditions: NCI-H2171, 72 h

Chain of Myc proto-oncogene protein (P01106 whole entry): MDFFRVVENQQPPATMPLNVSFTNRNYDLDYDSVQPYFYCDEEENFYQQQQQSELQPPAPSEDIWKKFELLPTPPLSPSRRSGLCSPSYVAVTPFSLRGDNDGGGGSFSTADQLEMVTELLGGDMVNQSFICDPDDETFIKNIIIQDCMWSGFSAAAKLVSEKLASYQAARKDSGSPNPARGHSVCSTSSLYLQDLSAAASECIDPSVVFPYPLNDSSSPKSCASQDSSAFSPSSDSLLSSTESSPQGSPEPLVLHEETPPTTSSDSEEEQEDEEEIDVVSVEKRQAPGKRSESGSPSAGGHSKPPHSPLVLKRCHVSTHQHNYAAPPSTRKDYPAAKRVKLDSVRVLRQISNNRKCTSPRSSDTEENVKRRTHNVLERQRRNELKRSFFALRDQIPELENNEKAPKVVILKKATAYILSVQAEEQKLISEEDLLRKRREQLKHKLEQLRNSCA

Structure (SMILES) | IC50 [1] [µM] | IC50 (NCI-H2171) [µM]
CSc1cccc2sc(-c3c(NC(=O)CCNC(C)C)sc4c3CCNC4)nc12 | 0.3 to 1 | < 0.3
CC(C)N1CCc2c(sc(NC(=O)CCN(C)C)c2-c2nc3ccccc3s2)C1 | 0.3 to 1 | < 0.3
CC(C)NCCC(=O)Nc1sc2c(c1-c1nc3cc(C4=CCN(S(C)(=O)=O)CC4)ccc3s1)CCNC2 | < 0.3 | 0.3 to 1
COCCNCCC(=O)Nc1sc2c(c1-c1nc3cc(-c4ccc(C(F)(F)F)nc4)ccc3s1)CCNC2 | 1 to 10 | < 0.3
CC(C)NCCC(=O)Nc1sc2c(c1-c1nc3cc(Sc4ccccn4)ccc3s1)CCNC2 | 1 to 10 | < 0.3
O=C(CCNC1C2CC1C2)Nc1sc2c(c1-c1nc3ccccc3s1)CCNC2 (stereo not given) | 1 to 10 | 0.3 to 1
O=C(C[C@@H]1CCCN1)Nc1sc2c(c1-c1nc3ccccc3s1)CCNC2 | 1 to 10 | < 0.3
COCCNCCC(=O)Nc1sc2c(c1-c1nc3cc(-c4cncc(C(F)(F)F)c4)ccc3s1)CCNC2 | 0.3 to 1 | < 0.3
CC(=O)Nc1sc2c(c1-c1nc3cc(-c4cnn(C)c4)ccc3s1)CCNC2 | 0.3 to 1 | < 0.3
COCCNCCC(=O)Nc1sc2c(c1-c1nc3ccc(-c4ccc(N5CCN(C)CC5)cc4)cc3s1)CCNC2 | < 0.3 | < 0.3
COCCNCCC(=O)Nc1sc2c(c1-c1nc3cc(-c4cccc(S(N)(=O)=O)c4)ccc3s1)CCNC2 | 0.3 to 1 | 0.3 to 1
COCCNCCC(=O)Nc1sc2c(c1-c1nc3cc(-c4cccnc4C)ccc3s1)CCNC2 | 1 to 10 | < 0.3
COCCNCCC(=O)Nc1sc2c(c1-c1nc3ccc(-c4cnn(C)c4C)cc3s1)CCNC2 | 0.3 to 1 | < 0.3
Cc1cc(-c2ccc3sc(-c4c(NC(=O)CCNC(C)C)sc5c4CCNC5)nc3c2)n(C)n1 | < 0.3 | 0.3 to 1
NCCC(=O)Nc1sc2c(c1-c1nc3ccccc3s1)CCNC2 | < 0.3 | < 0.3
COCCNCCC(=O)Nc1sc2c(c1-c1nc3cc(-c4cnn(C)c4C)ccc3s1)CCNC2 | 0.3 to 1 | < 0.3
CC(C)N1CCc2c(sc(NC(=O)CCNCCc3cccnc3)c2-c2nc3ccccc3s2)C1 | 0.3 to 1 | 0.3 to 1
COCCNCCC(=O)Nc1sc2c(c1-c1nc3cc(-c4ccc(F)nc4)ccc3s1)CCNC2 | < 0.3 | 0.3 to 1
COCCNCCC(=O)Nc1sc2c(c1-c1nc3c(NS(C)(=O)=O)cccc3s1)CCNC2 | 1 to 10 | < 0.3
COCCNCCC(=O)Nc1sc2c(c1-c1nc3ccc(-c4cncc(C(F)(F)F)c4)cc3s1)CCNC2 | > 10 | < 0.3
COCCNCCC(=O)Nc1sc2c(c1-c1nc3cc(-c4ccc(O)nc4)ccc3s1)CCNC2 | < 0.3 | 0.3 to 1
COCCNCCC(=O)Nc1sc2c(c1-c1nc3ccc(-c4cncc(C)c4)cc3s1)CCNC2 | 1 to 10 | < 0.3
CC(C)NCCC(=O)Nc1sc2c(c1-c1nc3cc(N4CCS(=O)(=O)CC4)ccc3s1)CCNC2 | 0.3 to 1 | < 0.3
COCCNCCC(=O)Nc1sc2c(c1-c1nc3ccc(-c4cncnc4)cc3s1)CCNC2 | 0.3 to 1 | < 0.3
COCCNCCC(=O)Nc1sc2c(c1-c1nc3cc(-c4ccnc(C(F)(F)F)c4)ccc3s1)CCNC2 | 0.3 to 1 | < 0.3
COCCNCCC(=O)Nc1sc2c(c1-c1nc3ccc(-c4c[nH]nc4C)cc3s1)CCNC2 | 0.3 to 1 | < 0.3
COc1ccc2sc(-c3c(NC(=O)CCNC(C)C)sc4c3CCNC4)nc2c1Cl | < 0.3 | 0.3 to 1
CC(C)NCCC(=O)Nc1sc2c(c1-c1nc3cc(SC4CCCC4)ccc3s1)CCNC2 | > 10 | < 0.3

Structure (SMILES) | IC50 [1] [µM] | IC50 (NCI-H2171) [µM]
CC(C)NCCC(=O)Nc1sc2c(c1-c1nc3cc(S(=O)(=O)C4CCCC4)ccc3s1)CCNC2 | 0.3 to 1 | < 0.3
O=C(CCN1CCOCC1)Nc1sc2c(c1-c1nc3ccccc3s1)CCNC2 | 1 to 10 | 0.3 to 1
CC(=O)Nc1cccc2sc(-c3c(NC(=O)CCNC(C)C)sc4c3CCNC4)nc12 | 0.3 to 1 | < 0.3
CC(C)NCCC(=O)Nc1sc2c(c1-c1nc3cc(C4CCCCC4)ccc3s1)CCNC2 | > 10 | 0.3 to 1
COCCNCCC(=O)Nc1sc2c(c1-c1nc3ccc(-c4ccncc4C)cc3s1)CCNC2 | > 10 | < 0.3
COCCNCCC(=O)Nc1sc2c(c1-c1nc3cc(-c4cncc(OCCOC)c4)ccc3s1)CCNC2 | 0.3 to 1 | < 0.3
COCCNCCC(=O)Nc1sc2c(c1-c1nc3cc(OC4CCOCC4)ccc3s1)CCNC2 | 0.3 to 1 | < 0.3
COCCNCCC(=O)Nc1sc2c(c1-c1nc3cc(-c4cnccc4C)ccc3s1)CCNC2 | 1 to 10 | < 0.3
CCOc1ncccc1-c1ccc2sc(-c3c(NC(=O)CCNCCOC)sc4c3CCNC4)nc2c1 | 1 to 10 | 0.3 to 1
CC(C)NCCC(=O)Nc1sc2c(c1-c1nc3cc(O)ccc3s1)CCNC2 | < 0.3 | 0.3 to 1
COCCNCCC(=O)Nc1sc2c(c1-c1nc3ccc(-c4cncc(N)c4)cc3s1)CCNC2 | 0.3 to 1 | < 0.3
COCCNCCC(=O)Nc1sc2c(c1-c1nc3cc(-c4c(C)nn(C)c4C)ccc3s1)CCNC2 | 1 to 10 | < 0.3
COCCNCCC(=O)Nc1sc2c(c1-c1nc3cc(-c4cncc(C#N)c4)ccc3s1)CCNC2 | 0.3 to 1 | 0.3 to 1
COCCNCCC(=O)Nc1sc2c(c1-c1nc3ccc(-c4cncc(F)c4)cc3s1)CCNC2 | 0.3 to 1 | < 0.3
CC(=O)Nc1sc2c(c1-c1nc3ccc(-c4cnn(C)c4)cc3s1)CCNC2 | 0.3 to 1 | 0.3 to 1
CC(C)NCCC(=O)Nc1sc2c(c1-c1nc3cc(C4=CCN(S(=O)(=O)N(C)C)CC4)ccc3s1)CCNC2 | 0.3 to 1 | < 0.3
COCCNCCC(=O)Nc1sc2c(c1-c1nc3cc(-c4cc(C)[nH]n4)ccc3s1)CCNC2 | 0.3 to 1 | < 0.3
CC(C)NCCC(=O)Nc1sc2c(c1-c1nc3ccc(-c4cnn(C)c4)cc3s1)CCNC2 | < 0.3 | < 0.3
COCCNCCC(=O)Nc1sc2c(c1-c1nc3ccc(-c4ccnc(OC)c4)cc3s1)CCNC2 | 0.3 to 1 | < 0.3
O=C(CCNC1CC1)Nc1sc2c(c1-c1nc3ccccc3s1)CCNC2 | 0.3 to 1 | < 0.3
Cc1noc(C)c1-c1ccc2sc(-c3c(NC(=O)CCNC(C)C)sc4c3CCNC4)nc2c1 | 1 to 10 | 0.3 to 1
COCCNCCC(=O)Nc1sc2c(c1-c1nc3cc(-c4ccncc4C)ccc3s1)CCNC2 | 1 to 10 | < 0.3
COCCNCCC(=O)Nc1sc2c(c1-c1nc3ccc(-c4ccc5nc(N)ncc5c4)cc3s1)CCNC2 | > 10 | < 0.3
CC(C)NCCC(=O)Nc1sc2c(c1-c1nc3cc(-c4cn[nH]c4)ccc3s1)CCNC2 | < 0.3 | < 0.3
COCCNCCC(=O)Nc1sc2c(c1-c1nc3ccc(-c4cccc(C(=O)N(C)C)c4)cc3s1)CCNC2 | 0.3 to 1 | < 0.3
COCCNCCC(=O)Nc1sc2c(c1-c1nc3cc(-c4cccc(S(C)(=O)=O)c4)ccc3s1)CCNC2 | 0.3 to 1 | < 0.3
CC(C)N1CCc2c(sc(NC(=O)CCN3CCN(C)CC3)c2-c2nc3ccccc3s2)C1 | 0.3 to 1 | 0.3 to 1
